Structures can show the parent of a compound that is named as a salt.
Assays:
Conditions in all cases: exposure time: 72 h
[1] = system: E31 (patient-derived glioblastoma stem cells of proneural subtype); experiment: phenotypic distance (Euclidean, principal components) from DMSO controls (arbitrary units); higher = stronger morphological change
[2] = system: FT3469 (normal neural stem cell line); experiment: as above
[3] = system: E28 (patient-derived glioblastoma stem cells of classical subtype); experiment: as above
[4] = system: E34 (patient-derived glioblastoma stem cells of proneural subtype); experiment: as above
[5] = system: E57 (patient-derived glioblastoma stem cells of mesenchymal subtype); experiment: as above
[6] = system: E13 (patient-derived glioblastoma stem cells of classical subtype); experiment: as above
[7] = system: E21 (patient-derived glioblastoma stem cells of mesenchymal subtype); experiment: as above
[8] = system: E31; experiment: surviving fraction (nuclei count normalised to DMSO); higher = more cells surviving (less toxic)
[9] = system: FT3469; experiment: as above
[10] = system: E28; experiment: as above
[11] = system: E34; experiment: as above
[12] = system: E57; experiment: as above
[13] = system: E13; experiment: as above
[14] = system: E21; experiment: as above
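For phenotypic distance (Euclidean, principal components) from DMSO controls in this document: cell Painting imaging in 384-well plates, CellProfiler features reduced to at least 20 principal components, Euclidean distance versus same-plate DMSO vehicle wells (0.1% v/v), median over six images per well.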
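For surviving fraction (nuclei count normalised to DMSO) in this document: nuclei counted by high-content imaging of Hoechst-stained cells in laminin-coated 384-well plates, relative to 0.1% DMSO vehicle wells, with staurosporine as cell-death control.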

CSc1ccc2c(c1)N(CCC1CCCCN1C)c1ccccc1S2 (stereo unspecified) [Thioridazine hydrochloride]
Conditions	phenotypic distance	surviving fraction
[1], 4.1 nM	1.05	–
[1], 12.3 nM	0.458	–
[1], 37 nM	0.506	–
[1], 111.1 nM	0.946	–
[1], 333.3 nM	0.547	–
[1], 1000 nM	0.532	–
[1], 3000 nM	1.19	–
[2], 4.1 nM	1.76	–
[2], 12.3 nM	1.1	–
[2], 37 nM	0.901	–
[2], 111.1 nM	0.672	–
[2], 333.3 nM	1.85	–
[2], 1000 nM	0.516	–
[2], 3000 nM	0.354	–
[3], 4.1 nM	1.44	–
[3], 12.3 nM	0.64	–
[3], 37 nM	0.64	–
[3], 111.1 nM	0.832	–
[3], 333.3 nM	0.524	–
[3], 1000 nM	0.717	–
[3], 3000 nM	0.589	–
[4], 4.1 nM	1.83	–
[4], 12.3 nM	0.749	–
[4], 37 nM	0.609	–
[4], 111.1 nM	0.331	–
[4], 333.3 nM	0.663	–
[4], 1000 nM	0.609	–
[4], 3000 nM	0.89	–
[5], 4.1 nM	1.05	–
[5], 12.3 nM	0.805	–
[5], 37 nM	0.596	–
[5], 111.1 nM	0.728	–
[5], 333.3 nM	0.352	–
[5], 1000 nM	0.966	–
[5], 3000 nM	0.872	–
[6], 4.1 nM	0.45	–
[6], 12.3 nM	0.608	–
[6], 37 nM	0.775	–
[6], 111.1 nM	3.1	–
[6], 333.3 nM	0.477	–
[6], 1000 nM	0.686	–
[6], 3000 nM	1.2	–
[7], 4.1 nM	1.5	–
[7], 12.3 nM	0.757	–
[7], 37 nM	0.366	–
[7], 111.1 nM	0.452	–
[7], 333.3 nM	0.631	–
[7], 1000 nM	0.422	–
[7], 3000 nM	0.911	–
[8], 4.1 nM	–	0.911
[8], 12.3 nM	–	0.899
[8], 37 nM	–	1.03
[8], 111.1 nM	–	0.762
[8], 333.3 nM	–	1.01
[8], 1000 nM	–	0.88
[8], 3000 nM	–	0.874
[9], 4.1 nM	–	1.11
[9], 12.3 nM	–	0.948
[9], 37 nM	–	1.02
[9], 111.1 nM	–	0.934
[9], 333.3 nM	–	1
[9], 1000 nM	–	1.06
[9], 3000 nM	–	0.997
[10], 4.1 nM	–	1.06
[10], 12.3 nM	–	1.05
[10], 37 nM	–	1.01
[10], 111.1 nM	–	1.06
[10], 333.3 nM	–	1.14
[10], 1000 nM	–	0.893
[10], 3000 nM	–	1.05
[11], 4.1 nM	–	0.994
[11], 12.3 nM	–	0.901
[11], 37 nM	–	0.957
[11], 111.1 nM	–	0.923
[11], 333.3 nM	–	0.896
[11], 1000 nM	–	0.974
[11], 3000 nM	–	0.91
[12], 4.1 nM	–	0.993
[12], 12.3 nM	–	0.914
[12], 37 nM	–	0.948
[12], 111.1 nM	–	0.926
[12], 333.3 nM	–	0.952
[12], 1000 nM	–	0.889
[12], 3000 nM	–	1.2
[13], 4.1 nM	–	0.922
[13], 12.3 nM	–	0.886
[13], 37 nM	–	0.934
[13], 111.1 nM	–	0.929
[13], 333.3 nM	–	0.939
[13], 1000 nM	–	0.93
[13], 3000 nM	–	0.861
[14], 4.1 nM	–	0.936
[14], 12.3 nM	–	0.936
[14], 37 nM	–	0.946
[14], 111.1 nM	–	1
[14], 333.3 nM	–	0.935
[14], 1000 nM	–	0.952
[14], 3000 nM	–	1.02

CCCCCCCCCCCCCCCC[N+](C)(C)CCN(Cc1ccc(OC)cc1)c1ncccn1 [Thonzonium bromide]
Conditions	phenotypic distance	surviving fraction
[1], 4.1 nM	0.672	–
[1], 12.3 nM	0.609	–
[1], 37 nM	0.797	–
[1], 111.1 nM	1.23	–
[1], 333.3 nM	1.32	–
[1], 1000 nM	1.09	–
[1], 3000 nM	9.07	–
[2], 4.1 nM	0.743	–
[2], 12.3 nM	3.16	–
[2], 37 nM	0.638	–
[2], 111.1 nM	0.6	–
[2], 333.3 nM	0.582	–
[2], 1000 nM	0.946	–
[2], 3000 nM	11.4	–
[3], 4.1 nM	0.34	–
[3], 12.3 nM	0.451	–
[3], 37 nM	0.622	–
[3], 111.1 nM	1.04	–
[3], 333.3 nM	0.781	–
[3], 1000 nM	1.5	–
[3], 3000 nM	13.5	–
[4], 4.1 nM	0.779	–
[4], 12.3 nM	0.535	–
[4], 37 nM	0.676	–
[4], 111.1 nM	0.729	–
[4], 333.3 nM	1.9	–
[4], 1000 nM	1.38	–
[4], 3000 nM	10.2	–
[5], 4.1 nM	0.446	–
[5], 12.3 nM	0.566	–
[5], 37 nM	0.663	–
[5], 111.1 nM	1.07	–
[5], 333.3 nM	1.33	–
[5], 1000 nM	1.72	–
[5], 3000 nM	9.5	–
[6], 4.1 nM	0.516	–
[6], 12.3 nM	0.581	–
[6], 37 nM	0.657	–
[6], 111.1 nM	1.02	–
[6], 333.3 nM	1.87	–
[6], 1000 nM	1.97	–
[6], 3000 nM	5.26	–
[7], 4.1 nM	0.872	–
[7], 12.3 nM	0.488	–
[7], 37 nM	0.498	–
[7], 111.1 nM	0.528	–
[7], 333.3 nM	1.11	–
[7], 1000 nM	1.7	–
[7], 3000 nM	15.4	–
[8], 4.1 nM	–	1.16
[8], 12.3 nM	–	1.1
[8], 37 nM	–	1.09
[8], 111.1 nM	–	0.966
[8], 333.3 nM	–	0.882
[8], 1000 nM	–	0.731
[8], 3000 nM	–	0.034
[9], 4.1 nM	–	0.999
[9], 12.3 nM	–	0.934
[9], 37 nM	–	0.968
[9], 111.1 nM	–	0.955
[9], 333.3 nM	–	0.924
[9], 1000 nM	–	0.859
[9], 3000 nM	–	0.00702
[10], 4.1 nM	–	1.08
[10], 12.3 nM	–	0.936
[10], 37 nM	–	1.09
[10], 111.1 nM	–	1.01
[10], 333.3 nM	–	0.814
[10], 1000 nM	–	0.696
[10], 3000 nM	–	0.00389
[11], 4.1 nM	–	1.03
[11], 12.3 nM	–	0.954
[11], 37 nM	–	1.04
[11], 111.1 nM	–	0.965
[11], 333.3 nM	–	0.876
[11], 1000 nM	–	0.699
[11], 3000 nM	–	0.0452
[12], 4.1 nM	–	0.925
[12], 12.3 nM	–	1.04
[12], 37 nM	–	1.04
[12], 111.1 nM	–	1.04
[12], 333.3 nM	–	1.13
[12], 1000 nM	–	1.01
[12], 3000 nM	–	0.00426
[13], 4.1 nM	–	1.04
[13], 12.3 nM	–	0.969
[13], 37 nM	–	0.906
[13], 111.1 nM	–	0.816
[13], 333.3 nM	–	0.606
[13], 1000 nM	–	0.555
[13], 3000 nM	–	0.19
[14], 4.1 nM	–	0.966
[14], 12.3 nM	–	1.03
[14], 37 nM	–	1.03
[14], 111.1 nM	–	0.987
[14], 333.3 nM	–	0.962
[14], 1000 nM	–	0.854
[14], 3000 nM	–	0.00843

— the supplement of paper PMC13207355
